PubChem BioAssay (NCI)
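All cell lines were grown in 96-well plates and treated with compound for 48 hours. At the GI50, growth is halved. TGI: total growth inhibition.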

Key:
Test in all cases: growth of human tumour cells (NCI), 48 h
[1] = test system: 786-0 renal
[2] = test system: A498 renal
[3] = test system: A549 NSCLC
[4] = test system: ACHN renal
[5] = test system: BT-549 breast
[6] = test system: CAKI-1 renal
[7] = test system: CCRF-CEM leukemia
[8] = test system: COLO 205 colon
[9] = test system: DU-145 prostate
[10] = test system: EKVX NSCLC
[11] = test system: HCC-2998 colon
[12] = test system: HCT-116 colon
[13] = test system: HCT-15 colon
[14] = test system: HL-60(TB) leukemia
[15] = test system: HOP-62 NSCLC
[16] = test system: HS 578T breast
[17] = test system: HT29 colon
[18] = test system: IGROV1 ovarian
[19] = test system: K-562 leukemia
[20] = test system: KM12 colon
[21] = test system: LOX IMVI melanoma
[22] = test system: M14 melanoma
[23] = test system: MALME-3M melanoma
[24] = test system: MCF7 breast
[25] = test system: MDA-MB-231 breast
[26] = test system: MDA-MB-435
[27] = test system: MOLT-4 leukemia
[28] = test system: NCI-H226 lung
[29] = test system: NCI-H23 lung
[30] = test system: NCI-H460 lung
[31] = test system: NCI-H522 lung
[32] = test system: NCI/ADR-RES ovarian
[33] = test system: OVCAR-3 ovarian
[34] = test system: OVCAR-4 ovarian
[35] = test system: OVCAR-5 ovarian
[36] = test system: OVCAR-8 ovarian
[37] = test system: PC-3 prostate
[38] = test system: RXF 393 renal
[39] = test system: SF-268 CNS
[40] = test system: SF-295 CNS
[41] = test system: SF-539 CNS
[42] = test system: SK-MEL-2 melanoma
[43] = test system: SK-MEL-28 melanoma
[44] = test system: SK-MEL-5 melanoma
[45] = test system: SK-OV-3 ovarian
[46] = test system: SN12C renal
[47] = test system: SNB-19 CNS
[48] = test system: SNB-75 CNS
[49] = test system: SR leukemia
[50] = test system: SW-620 colon
[51] = test system: T-47D breast
[52] = test system: TK-10 renal
[53] = test system: U251 CNS
[54] = test system: UACC-257 melanoma
[55] = test system: UACC-62 melanoma
[56] = test system: UO-31 renal
[57] = test system: HOP-92 NSCLC
[58] = test system: RPMI-8226 leukemia

For `ClCCn1cnc2c(SCc3ccccc3Cl)ncnc21`, the GI50 [1] was 0.671 µM, the TGI [1] was 20.4 µM and the GI50 [2] was 24.5 µM. The TGI [2] was over 93 µM, the GI50 [3] was 0.278 µM and the TGI [3] was over 39.6 µM. The GI50 [4] was 0.51 µM, the TGI [4] was over 100 µM and the GI50 [5] was 8.79 µM. The TGI [5] was 53.6 µM, the GI50 [6] was 0.272 µM and the TGI [6] was 24.7 µM. The GI50 [7] was 2 µM, the TGI [7] was 36.5 µM and the GI50 [8] was 2.01 µM. It also gave a TGI [8] of over 100 µM, a GI50 [9] of 0.754 µM and a TGI [9] of 25 µM. For the same molecule, the GI50 [10] was 13.8 µM, the TGI [10] was over 78 µM and the GI50 [11] was 1.75 µM. It also gave a GI50 [12] of 0.0679 µM, a TGI [12] of 21 µM and a GI50 [13] of 0.0383 µM. The TGI [13] was over 100 µM, the GI50 [14] was 0.416 µM and the TGI [14] was 8.94 µM. It also gave a GI50 [15] of 2.56 µM, a TGI [15] of over 100 µM and a GI50 [16] of 19.4 µM. It also gave a TGI [16] of 89 µM, a GI50 [17] of 0.191 µM and a TGI [17] of over 100 µM. It also gave a GI50 [18] of 0.51 µM, a TGI [18] of over 41.6 µM and a GI50 [19] of 0.0755 µM. The TGI [19] was over 59.1 µM, the GI50 [20] was 0.789 µM and the TGI [20] was 46.6 µM. The GI50 [21] was 0.0756 µM, the TGI [21] was 11.9 µM and the GI50 [22] was 7.5 µM. For the same molecule, the TGI [22] was over 76.6 µM, the GI50 [23] was 14.2 µM and the TGI [23] was 45.4 µM. For the same molecule, the GI50 [24] was 0.446 µM, the TGI [24] was over 100 µM and the GI50 [25] was 5.77 µM. It also gave a TGI [25] of over 100 µM, a GI50 [26] of 0.779 µM and a TGI [26] of 50.7 µM. It also gave a GI50 [27] of 0.176 µM, a TGI [27] of 9.4 µM and a GI50 [28] of 3.52 µM. For the same molecule, the TGI [28] was 59.9 µM, the GI50 [29] was 9.69 µM and the TGI [29] was over 73.7 µM. For the same molecule, the GI50 [30] was 0.0533 µM, the TGI [30] was 16.4 µM and the GI50 [31] was 2.64 µM. It also gave a TGI [31] of over 71.1 µM, a GI50 [32] of 1.2 µM and a TGI [32] of over 52.5 µM. The GI50 [33] was 9.31 µM, the TGI [33] was 29.8 µM and the GI50 [34] was 14.4 µM. For the same molecule, the TGI [34] was over 100 µM, the GI50 [35] was 37.8 µM and the TGI [35] was over 100 µM. It also gave a GI50 [36] of 0.576 µM, a TGI [36] of over 90.5 µM and a GI50 [37] of 0.717 µM. For the same molecule, the TGI [37] was 46.6 µM, the GI50 [38] was 1.35 µM and the TGI [38] was 26.4 µM. The GI50 [39] was 4.87 µM, the TGI [39] was over 84.7 µM and the GI50 [40] was 0.184 µM. It also gave a TGI [40] of 20.2 µM, a GI50 [41] of 0.267 µM and a TGI [41] of 68.8 µM. It also gave a GI50 [42] of 12.7 µM, a TGI [42] of 54.4 µM and a GI50 [43] of 5.3 µM. It also gave a TGI [43] of over 83.8 µM, a GI50 [44] of 0.272 µM and a TGI [44] of 43.3 µM. For the same molecule, the GI50 [45] was 9.72 µM, the TGI [45] was over 100 µM and the GI50 [46] was 1.26 µM. For the same molecule, the TGI [46] was over 100 µM, the GI50 [47] was 1.98 µM and the TGI [47] was over 100 µM. It also gave a GI50 [48] of 6.69 µM, a TGI [48] of over 63.2 µM and a GI50 [49] of 0.0609 µM. The TGI [49] was 13.1 µM, the GI50 [50] was 0.511 µM and the TGI [50] was over 100 µM. It also gave a GI50 [51] of 13.7 µM, a TGI [51] of 79.5 µM and a GI50 [52] of 5.44 µM. The TGI [52] was over 83.1 µM, the GI50 [53] was 0.0925 µM and the TGI [53] was over 89.8 µM. For the same molecule, the GI50 [54] was 2.64 µM, the GI50 [55] was 0.529 µM and the TGI [55] was over 48.1 µM. It also gave a GI50 [56] of 0.883 µM and a TGI [56] of 41.8 µM.
With `O=CN/N=C/c1ccc(Cl)c([N+](=O)[O-])c1` the GI50 [1] was 0.544 µM, the TGI [1] was over 100 µM and the GI50 [2] was 2.14 µM. It also gave a TGI [2] of 90.5 µM, a GI50 [3] of 0.337 µM and a TGI [3] of over 100 µM. It also gave a GI50 [4] of 5.17 µM, a TGI [4] of over 100 µM and a GI50 [5] of 3.31 µM. It also gave a TGI [5] of 20 µM, a GI50 [6] of 4.04 µM and a TGI [6] of over 100 µM. The GI50 [7] was 0.243 µM, the TGI [7] was 72.6 µM and the GI50 [8] was 0.11 µM. The TGI [8] was 15.4 µM, the GI50 [9] was 0.401 µM and the TGI [9] was over 100 µM. The GI50 [11] was 0.37 µM, the TGI [11] was 19.6 µM and the GI50 [12] was 0.0536 µM. For the same molecule, the TGI [12] was over 100 µM, the GI50 [13] was 4.14 µM and the TGI [13] was over 100 µM. For the same molecule, the GI50 [14] was 0.125 µM, the TGI [14] was 18.4 µM and the GI50 [15] was 1.47 µM. For the same molecule, the TGI [15] was 49.7 µM, the GI50 [57] was 1.24 µM and the TGI [57] was 21.1 µM. For the same molecule, the GI50 [16] was 9.41 µM, the TGI [16] was 40.7 µM and the GI50 [17] was 0.0457 µM. It also gave a TGI [17] of 14.4 µM, a GI50 [18] of 0.0728 µM and a TGI [18] of 21.9 µM. The GI50 [19] was 0.197 µM, the TGI [19] was over 100 µM and the GI50 [20] was 0.228 µM. It also gave a TGI [20] of 15.1 µM, a GI50 [21] of 0.111 µM and a TGI [21] of 13.7 µM. For the same molecule, the GI50 [22] was 0.513 µM, the TGI [22] was over 46.5 µM and the GI50 [23] was 3.19 µM. For the same molecule, the TGI [23] was 33 µM, the GI50 [24] was 0.351 µM and the TGI [24] was 58.6 µM. It also gave a GI50 [25] of 1.54 µM, a TGI [25] of 27.3 µM and a GI50 [26] of 0.0611 µM. For the same molecule, the TGI [26] was 18.6 µM, the GI50 [27] was 0.577 µM and the TGI [27] was 46.8 µM. It also gave a GI50 [28] of 0.725 µM, a TGI [28] of over 100 µM and a GI50 [29] of 0.396 µM. The TGI [29] was 48.1 µM, the GI50 [30] was 0.0427 µM and the TGI [30] was 14.8 µM. It also gave a GI50 [31] of 0.451 µM, a TGI [31] of 19.9 µM and a GI50 [32] of over 100 µM. For the same molecule, the TGI [32] was over 100 µM, the GI50 [33] was 0.555 µM and the TGI [33] was 20.7 µM. The GI50 [34] was 0.684 µM, the TGI [34] was 60.6 µM and the GI50 [35] was 0.189 µM. For the same molecule, the TGI [35] was over 100 µM, the GI50 [36] was 0.567 µM and the TGI [36] was over 100 µM. It also gave a GI50 [37] of 0.0249 µM, a TGI [37] of 13.2 µM and a GI50 [58] of 0.439 µM. The TGI [58] was 17.4 µM, the GI50 [38] was 0.399 µM and the TGI [38] was over 100 µM. It also gave a GI50 [39] of 0.172 µM, a TGI [39] of 18.4 µM and a GI50 [40] of 0.623 µM. The TGI [40] was over 79.9 µM, the GI50 [41] was 0.309 µM and the TGI [41] was 13.7 µM. It also gave a GI50 [42] of 5.43 µM, a TGI [42] of 22.6 µM and a GI50 [43] of 0.899 µM. For the same molecule, the TGI [43] was 24 µM, the GI50 [44] was 0.402 µM and the TGI [44] was 3.7 µM. For the same molecule, the GI50 [45] was 7.33 µM, the TGI [45] was over 100 µM and the GI50 [46] was 0.503 µM. For the same molecule, the TGI [46] was 21.9 µM, the GI50 [47] was 0.518 µM and the TGI [47] was 46.6 µM. It also gave a GI50 [48] of 0.787 µM, a TGI [48] of 31.5 µM and a GI50 [49] of 0.126 µM. For the same molecule, the TGI [49] was 22.6 µM, the GI50 [50] was 0.0596 µM and the TGI [50] was over 100 µM. It also gave a GI50 [51] of 2.92 µM, a TGI [51] of 51.7 µM and a GI50 [52] of 2.4 µM. It also gave a TGI [52] of 71.3 µM, a GI50 [53] of 0.0617 µM and a TGI [53] of 25.8 µM. The GI50 [54] was 0.618 µM, the TGI [54] was 27.4 µM and the GI50 [55] was 0.327 µM. The TGI [55] was 14.6 µM, the GI50 [56] was 54.1 µM and the TGI [56] was over 100 µM.
